Experiments:
[1] = target: T1, CDK12 (aa686-1082)/Cyclin K complex (Homo sapiens, UniProt Q9NYV4); experiment: CDK12 kinase inhibition assay (Caliper/LabChip EZ Reader); assay type: biochemical; details: CDK12 (aa686-1082)/Cyclin K 50 nM, ATP 2 mM, 3 hr at 27° C.
T1 construct: CDK12 (aa686-1082)/Cyclin K complex
Procedure: (§1) Compounds of the invention were assayed for inhibition of CDK7, CDK9, CDK12, and CDK2 activity at Biortus Biosciences (Jiangyin, Jiangsu Province, P.R. of China) using kinase assays for each CDK developed with a Caliper/LabChip EZ Reader (Perkin Elmer, Waltham, Mass.).
(§2) Furthermore, the CDK9 inhibition assay used CDK9/Cyclin T1 complex (8 nM) and “5-FAM-CDK9tide” peptide substrate (2 μM, synthesized fluorophore-labeled peptide with the following sequence: 5-FAM-GSRTPMY-NH2 where 5-FAM is defined above and NH2 signifies a C-terminal amide) with 10 mM MgCl2 in the buffer composition listed above. The CDK12 inhibition assay used CDK12 (aa686-1082)/Cyclin K complex (50 nM) and “5-FAM-CDK9tide” (2 μM) as defined above, with 2 mM MgCl2 in the buffer composition above. Additionally, the CDK2 inhibition assay used CDK2/Cyclin E1 complex (0.5 nM) and “5-FAM-CDK7tide” (2 μM) as defined above, with 2 mM MgCl2 in the buffer composition listed above.
(§3) The incubation period at 27° C. for each CDK inhibition assay was chosen such that the fraction of phosphorylated peptide product produced in each assay, relative to the total peptide concentration, was approximately 20% (±5%) for the uninhibited kinase (35 min. for CDK7, 35 min. for CDK2, 3 hr. for CDK12, 15 min. for CDK9).

A673 cells = experiment: Inhibition of proliferation of A673 cells (CyQUANT, 72 hour); assay type: cell-based, human; details: read-out: Inhibition of Proliferation of A673 Cells (calculated IC50)
Procedure: A673 Cells: A673 cells are a cell line derived from human muscle Ewing's sarcoma. Representative compounds of the invention were tested at different concentrations (from 4 μM to […]; 0.5 log serial dilutions) for their ability to inhibit the proliferation of A673 cells. Known CDK inhibitors dinaciclib or N-((1S,3R)-3-((5-chloro-4-(1H-indol-3-yl)pyrimidin-2-yl)amino)cyclohexyl)-5-((E)-4-(dimethylamino)but-2-enamido)picolinamide and triptolide were used as positive controls. Cells were grown in Dulbecco's Modified Eagle's Medium, +10% FBS+1 mM Sodium Pyruvate. The cells were cultured at 37° C. in a humidified chamber in the presence of 5% CO2. Proliferation assays were conducted over a 72 hour time period. CyQUANT® (Life Technologies, Chicago, Ill. USA) was used to assess the anti-proliferative effects of the compounds following manufacturer's directions and utilizing the reagents supplied with the CyQUANT® kit.

[2] = target: CDK7/Cyclin H/MAT1 complex (Homo sapiens, UniProt P50613); experiment: CDK7 kinase inhibition assay (Caliper/LabChip EZ Reader); assay type: biochemical; details: CDK7/Cyclin H/MAT1 6 nM, ATP 2 mM, 35 min at 27° C.
Procedure: as §1, §2, §3

CDK2/Cyclin E1 complex = CDK2/Cyclin E1 complex (Homo sapiens, UniProt P24941); experiment: CDK2 kinase inhibition assay (Caliper/LabChip EZ Reader); assay type: biochemical; details: CDK2/Cyclin E1 0.5 nM, ATP 2 mM, 35 min at 27° C.
Procedure: as §1, §2, §3

CDK9/Cyclin T1 complex = CDK9/Cyclin T1 complex (Homo sapiens, UniProt P50750); experiment: CDK9 kinase inhibition assay (Caliper/LabChip EZ Reader); assay type: biochemical; details: CDK9/Cyclin T1 8 nM, ATP 2 mM, 15 min at 27° C.
Procedure: as §1, §2, §3

Sequence of CDK7/Cyclin H/MAT1 complex (P50613 whole entry): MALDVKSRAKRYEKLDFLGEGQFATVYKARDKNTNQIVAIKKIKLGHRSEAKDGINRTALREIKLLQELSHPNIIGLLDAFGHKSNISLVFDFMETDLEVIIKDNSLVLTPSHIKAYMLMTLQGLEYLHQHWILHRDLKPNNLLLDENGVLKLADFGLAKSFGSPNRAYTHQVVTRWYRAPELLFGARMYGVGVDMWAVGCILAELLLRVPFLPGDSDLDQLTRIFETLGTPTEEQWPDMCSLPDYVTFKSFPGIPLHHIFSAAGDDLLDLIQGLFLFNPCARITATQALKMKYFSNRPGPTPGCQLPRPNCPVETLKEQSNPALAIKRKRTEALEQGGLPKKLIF
Sequence of CDK7/Cyclin H/MAT1 complex (P51946 whole entry partner): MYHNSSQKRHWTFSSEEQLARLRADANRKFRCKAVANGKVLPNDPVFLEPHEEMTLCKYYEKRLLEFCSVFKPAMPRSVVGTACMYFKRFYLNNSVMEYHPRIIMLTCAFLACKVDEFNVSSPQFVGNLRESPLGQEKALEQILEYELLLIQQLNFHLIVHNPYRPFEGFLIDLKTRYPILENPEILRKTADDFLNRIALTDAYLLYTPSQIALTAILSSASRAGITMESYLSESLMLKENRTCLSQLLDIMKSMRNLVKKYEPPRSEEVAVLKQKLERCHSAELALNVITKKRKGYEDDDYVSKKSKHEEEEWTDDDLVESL
Sequence of CDK7/Cyclin H/MAT1 complex (P51948 whole entry partner): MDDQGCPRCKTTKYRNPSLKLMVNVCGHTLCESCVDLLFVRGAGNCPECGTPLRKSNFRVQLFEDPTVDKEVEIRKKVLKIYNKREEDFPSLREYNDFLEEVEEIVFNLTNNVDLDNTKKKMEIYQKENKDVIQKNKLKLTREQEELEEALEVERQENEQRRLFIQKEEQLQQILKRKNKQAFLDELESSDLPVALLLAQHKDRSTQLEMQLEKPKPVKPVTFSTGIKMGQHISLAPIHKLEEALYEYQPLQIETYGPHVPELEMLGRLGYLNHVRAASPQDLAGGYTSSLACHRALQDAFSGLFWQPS
Sequence of CDK9/Cyclin T1 complex (P50750 whole entry): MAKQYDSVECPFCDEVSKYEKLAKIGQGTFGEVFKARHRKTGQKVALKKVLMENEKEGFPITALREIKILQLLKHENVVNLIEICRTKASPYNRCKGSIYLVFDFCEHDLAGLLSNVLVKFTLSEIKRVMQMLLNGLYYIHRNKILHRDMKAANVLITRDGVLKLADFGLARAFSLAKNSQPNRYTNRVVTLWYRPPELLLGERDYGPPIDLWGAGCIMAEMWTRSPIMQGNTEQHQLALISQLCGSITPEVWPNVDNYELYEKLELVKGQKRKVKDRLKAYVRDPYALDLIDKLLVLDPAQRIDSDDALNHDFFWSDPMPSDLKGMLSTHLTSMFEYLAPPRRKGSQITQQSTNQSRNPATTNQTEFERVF
Sequence of CDK9/Cyclin T1 complex (O60563 whole entry partner): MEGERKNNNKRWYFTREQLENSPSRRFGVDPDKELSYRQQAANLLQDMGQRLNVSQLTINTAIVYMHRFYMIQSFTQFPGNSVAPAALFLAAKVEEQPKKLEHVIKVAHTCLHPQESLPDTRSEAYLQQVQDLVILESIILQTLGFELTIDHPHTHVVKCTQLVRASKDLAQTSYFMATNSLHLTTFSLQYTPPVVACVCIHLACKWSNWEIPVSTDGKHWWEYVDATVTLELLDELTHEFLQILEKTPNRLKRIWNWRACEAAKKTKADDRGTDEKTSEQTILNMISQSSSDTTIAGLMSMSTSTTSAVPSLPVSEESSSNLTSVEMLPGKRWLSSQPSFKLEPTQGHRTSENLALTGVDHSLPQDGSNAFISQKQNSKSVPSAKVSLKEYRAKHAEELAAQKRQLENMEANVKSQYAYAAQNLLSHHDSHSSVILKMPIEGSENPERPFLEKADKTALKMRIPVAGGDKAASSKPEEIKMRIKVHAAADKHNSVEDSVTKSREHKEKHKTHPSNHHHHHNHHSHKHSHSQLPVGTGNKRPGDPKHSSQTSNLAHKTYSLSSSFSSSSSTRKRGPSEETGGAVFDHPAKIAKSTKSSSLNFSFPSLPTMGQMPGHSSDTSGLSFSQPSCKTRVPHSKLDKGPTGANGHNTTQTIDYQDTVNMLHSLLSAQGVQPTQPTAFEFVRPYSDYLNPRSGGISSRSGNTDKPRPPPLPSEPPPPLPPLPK
T1 sequence (Q9NYV4 686-1082): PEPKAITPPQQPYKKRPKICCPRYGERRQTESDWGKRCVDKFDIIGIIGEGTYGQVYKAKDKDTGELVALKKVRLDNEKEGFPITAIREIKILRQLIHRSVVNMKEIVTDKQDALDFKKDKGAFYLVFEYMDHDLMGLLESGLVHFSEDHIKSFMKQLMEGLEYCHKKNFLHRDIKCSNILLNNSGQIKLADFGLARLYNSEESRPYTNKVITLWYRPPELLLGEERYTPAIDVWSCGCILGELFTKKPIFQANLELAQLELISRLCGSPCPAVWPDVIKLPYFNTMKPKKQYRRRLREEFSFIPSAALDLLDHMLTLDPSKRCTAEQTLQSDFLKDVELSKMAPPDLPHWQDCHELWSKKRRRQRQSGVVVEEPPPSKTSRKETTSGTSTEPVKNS
T1 sequence (O75909 whole entry partner, the tested form may be a part): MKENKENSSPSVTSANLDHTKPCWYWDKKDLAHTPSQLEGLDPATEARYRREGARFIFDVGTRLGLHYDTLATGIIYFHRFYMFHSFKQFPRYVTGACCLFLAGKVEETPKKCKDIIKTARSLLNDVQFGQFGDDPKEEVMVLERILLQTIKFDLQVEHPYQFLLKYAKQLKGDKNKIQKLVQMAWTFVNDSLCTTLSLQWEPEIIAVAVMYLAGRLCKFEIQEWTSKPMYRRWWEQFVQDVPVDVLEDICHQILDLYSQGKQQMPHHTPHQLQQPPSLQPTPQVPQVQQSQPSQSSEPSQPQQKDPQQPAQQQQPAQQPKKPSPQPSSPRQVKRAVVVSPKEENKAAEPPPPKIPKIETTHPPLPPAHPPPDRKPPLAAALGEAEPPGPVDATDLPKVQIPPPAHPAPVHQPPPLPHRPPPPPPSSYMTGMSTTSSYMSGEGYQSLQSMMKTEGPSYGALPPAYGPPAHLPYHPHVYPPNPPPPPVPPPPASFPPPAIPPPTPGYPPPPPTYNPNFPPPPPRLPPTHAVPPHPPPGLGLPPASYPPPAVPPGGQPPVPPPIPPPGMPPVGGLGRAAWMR

Structure (SMILES)	IC50 [1] [µM]	IC50 (A673 cells) [nM]	IC50 [2] [nM]	IC50 (CDK2/Cyclin E1 complex) [µM]	IC50 (CDK9/Cyclin T1 complex) [µM]
Clc1cnc(NC2CCCNC2)nc1-c1c[nH]c2ccccc12 (stereo not shown) [Compound 100]	0.2 to 5	< 20	< 20	0.2 to 5	0.2 to 5
Clc1cnc(NC2CCCNC2)nc1-c1c[nH]c2ccccc12 (stereo not shown) [Compound 101]	0.2 to 5	20 to 200	200 to 5000	0.2 to 5	0.2 to 5
FC(F)(F)c1cnc(NC2CCCNC2)nc1-c1c[nH]c2ccccc12 (stereo not shown) [Compound 102]	0.02 to 0.2	< 20	< 20	0.2 to 5	0.02 to 0.2
CCc1cnc(NC2CCCNC2)nc1-c1c[nH]c2ccccc12 (stereo not shown) [Compound 105]	0.2 to 5	20 to 200	20 to 200	≥ 5	≥ 5
Cc1[nH]c2ccccc2c1-c1nc(NC2CCCNC2)ncc1Cl (stereo not shown) [Compound 106]	0.2 to 5	20 to 200	20 to 200	≥ 5	0.2 to 5
Cc1ccc2[nH]cc(-c3nc(NC4CCCNC4)ncc3Cl)c2c1 (stereo not shown) [Compound 108]	0.2 to 5	200 to 5000	20 to 200	0.2 to 5	0.2 to 5
CCc1cnc(NC2CCCNC2)nc1-c1n[nH]c2ccccc12 (stereo not shown) [Compound 110]	0.2 to 5	20 to 200	20 to 200	0.2 to 5	0.2 to 5
Fc1cc2[nH]cc(-c3nc(NC4CCCNC4)ncc3Cl)c2cc1F (stereo not shown) [Compound 111]	0.02 to 0.2	20 to 200	< 20	0.2 to 5	0.02 to 0.2
OC1CCNCC1Nc1ncc(Cl)c(-c2c[nH]c3ccccc23)n1 (stereo not shown) [Compound 113]	0.2 to 5	200 to 5000	20 to 200	≥ 5	≥ 5
CC1NCCCC1Nc1ncc(Cl)c(-c2c[nH]c3ccccc23)n1 (stereo not shown) [Compound 114]	0.2 to 5	20 to 200	20 to 200	0.2 to 5	0.2 to 5
CC1(Nc2ncc(Cl)c(-c3c[nH]c4ccccc34)n2)CCCNC1 (stereo not shown) [Compound 115]	≥ 5	200 to 5000	200 to 5000	≥ 5	≥ 5
Clc1cnc(NC2CNCCC2c2ccccc2)nc1-c1c[nH]c2ccccc12 (stereo not shown) [Compound 116]	≥ 5	200 to 5000	≥ 5000	≥ 5	≥ 5
Clc1cnc(NC2CCCNC2)nc1-c1c[nH]c2ccncc12 (stereo not shown) [Compound 117]	0.2 to 5	20 to 200	20 to 200	0.2 to 5	0.2 to 5
Cc1cnc(NC2CCCNC2)nc1-c1c[nH]c2ccccc12 (stereo not shown) [Compound 119]	0.2 to 5	20 to 200	20 to 200	≥ 5	0.2 to 5
CCc1cnc(NC2CCCNC2)nc1-c1n[nH]c2ccc(C)cc12 (stereo not shown) [Compound 120]	0.2 to 5		200 to 5000	≥ 5	≥ 5
FC1CCNCC1Nc1ncc(Cl)c(-c2c[nH]c3ccccc23)n1 (stereo not shown) [Compound 121]	0.2 to 5	20 to 200	20 to 200	0.2 to 5	0.2 to 5
COCCn1cc(-c2nc(NC3CCCNC3)ncc2Cl)c2ccccc21 (stereo not shown) [Compound 122]	≥ 5	200 to 5000	200 to 5000	≥ 5	0.2 to 5
COCCn1cc(-c2nc(NC3CCCNC3)ncc2C(F)(F)F)c2ccccc21 (stereo not shown) [Compound 123]	≥ 5	200 to 5000	20 to 200	≥ 5	0.2 to 5
Cc1cccc2c(-c3nc(NC4CCCNC4)ncc3C(F)(F)F)c[nH]c12 (stereo not shown) [Compound 124]	0.02 to 0.2	< 20	< 20	0.2 to 5	0.2 to 5
CC1CCNCC1Nc1ncc(Cl)c(-c2c[nH]c3ccccc23)n1 (stereo not shown) [Compound 125]	≥ 5	200 to 5000	20 to 200	≥ 5	≥ 5

Structure (SMILES)	IC50 [1] [µM]	IC50 (A673 cells) [nM]	IC50 [2] [nM]	IC50 (CDK2/Cyclin E1 complex) [µM]	IC50 (CDK9/Cyclin T1 complex) [µM]
CC1CCNCC1Nc1ncc(Cl)c(-c2c[nH]c3ccccc23)n1 (stereo not shown) [Compound 126]	0.2 to 5		20 to 200	0.2 to 5	0.2 to 5
CC(C)n1cc(-c2nc(NC3CCCNC3)ncc2Cl)c2ccccc21 (stereo not shown) [Compound 127]	≥ 5	200 to 5000	200 to 5000	0.2 to 5	0.2 to 5
CCC1(Nc2ncc(Cl)c(-c3c[nH]c4ccccc34)n2)CCCNC1 (stereo not shown) [Compound 128]	≥ 5		≥ 5000	≥ 5	≥ 5
CC1CCC(Nc2ncc(Cl)c(-c3c[nH]c4ccccc34)n2)CN1 (stereo not shown) [Compound 129]	0.2 to 5	20 to 200	20 to 200		
Clc1cnc(NC2(c3ccccc3)CCCNC2)nc1-c1c[nH]c2ccccc12 (stereo not shown) [Compound 130]	≥ 5	200 to 5000	≥ 5000		
Clc1cnc(NC2CN3CCC2CC3)nc1-c1c[nH]c2ccccc12 (stereo not shown) [Compound 131]	≥ 5	200 to 5000	≥ 5000	≥ 5	≥ 5
Clc1cnc(NC2CCCNC2)nc1-c1cn(-c2ccccc2)c2ccccc12 (stereo not shown) [Compound 132]	≥ 5	200 to 5000	200 to 5000	≥ 5	0.2 to 5
Brc1cnc(N[C@@H]2CCCNC2)nc1-c1c[nH]c2ccccc12 [Compound 133]	0.02 to 0.2	< 20	< 20	0.02 to 0.2	0.2 to 5
FC(F)(F)c1cnc(NC2CCCNC2)nc1-c1c[nH]c2c(-c3ccncc3)cccc12 (stereo not shown) [Compound 162]	0.2 to 5	< 20	20 to 200		0.2 to 5
FC(F)(F)c1cnc(NC2CCCNC2)nc1-c1c[nH]c2c(Br)cccc12 (stereo not shown) [Compound 163]	0.2 to 5	20 to 200	20 to 200		0.2 to 5
Cn1cc(-c2cccc3c(-c4nc(NC5CCCNC5)ncc4C(F)(F)F)c[nH]c23)cn1 (stereo not shown) [Compound 164]	0.2 to 5	< 20	20 to 200		0.2 to 5
CC1(O)CCC(c2cccc3c(-c4nc(NC5CCCNC5)ncc4C(F)(F)F)c[nH]c23)CC1 (stereo not shown) [Compound 193]	0.2 to 5		20 to 200	0.2 to 5	0.2 to 5
CC1(O)CCN(C(=O)c2ccc3c(-c4nc(NC5CCCNC5)ncc4C(F)(F)F)c[nH]c3c2)C1 (stereo not shown) [Compound 220]	0.2 to 5		< 20	≥ 5	≥ 5
CC(C)C1CCC(Nc2nccc(-c3c[nH]c4ccccc34)n2)CN1 (stereo not shown) [Compound 237]	0.2 to 5		20 to 200	0.2 to 5	≥ 5
FC(F)(F)c1cnc(N[C@H]2CCCNC2)nc1-c1c[nH]c2cc(-n3ccnc3)ccc12 [Compound 248]	0.2 to 5		< 20	0.2 to 5	0.2 to 5
FC(F)(F)c1cnc(NC2CNCC(c3nnc4ccccn34)C2)nc1-c1c[nH]c2ccccc12 (stereo not shown) [Compound 268]		200 to 5000			
CCc1cnc(N[C@H]2CCCNC2)nc1-c1c[nH]c2cc(S(C)(=O)=O)ccc12 [Compound 271]		200 to 5000			
CSc1cnc(NC2CCCNC2)nc1-c1c[nH]c2cc(C#N)ccc12 (stereo not shown) [Compound 272]		20 to 200			
CCc1cnc(N[C@H]2CCCNC2)nc1-c1c[nH]c2c(S(=O)(=O)O)cccc12 [Compound 362]	≥ 5		20 to 200	≥ 5	≥ 5
CCc1cnc(NC2CCCNC2)nc1-c1c[nH]c2c(S(=O)O)cccc12 (stereo not shown) [Compound 363]	≥ 5		20 to 200	≥ 5	≥ 5

Source: patent publication US20230000870A1, “METHODS OF TREATING CANCER IN BIOMARKER-IDENTIFIED PATIENTS WITH INHIBITORS OF CYCLIN-DEPENDENT KINASE 7 (CDK7)” (Syros Pharmaceuticals, Inc., priority 2019, published 2023)
